# Measurements taken from a melting point compilation (Tetko et al.; mined from patent text by program, amines drawn as free bases though some values may be those of a salt).
row,SMILES,melting point [°C]
1,COC(=O)C1=C(C)NC(C)=C(C#N)C1c1cccc(N)c1 (stereo not given),234 to 235
2,CCOC(=O)c1ccc(NC(=O)C=Cc2ccc(Cl)cc2)cc1,203 to 204
3,CC(C)(C)NC(=O)[C@@H]1[C@@H](Cl)CCN1C(=O)[C@@H](O)[C@H](Cc1ccccc1)NC(=O)[C@H](CC(N)=O)NC(=O)OCc1ccccc1,102 to 104
4,OCc1cccnc1Oc1ccc(F)cc1,70 to 72
5,O=C(O)C1Cc2cc3c(-c4ccccc4Cl)noc3c(Cl)c2O1 (stereo not given),224 to 225
6,O=C(N[C@H]1CCN(C(=O)c2cc(Cl)cc(Cl)c2)[C@H](Cc2ccccc2)C1)c1cc2ccccc2[nH]1 (relative stereo),254
7,Nc1c(C(=O)O)cnn1-c1ccc(Cl)cc1,169 to 171
8,Cc1nc(N2CCN(Cc3ccc(C(F)(F)F)cc3)C2=O)sc1-c1cnco1,160 to 162
9,CCC(=O)Nc1ccc(C(=O)NCCN(CC)CC)c(OC)c1,137
10,O=C(Nc1ccc(Oc2ccccc2)cc1)N1CCN(c2ccnc3cc(Cl)ccc23)CC1,159 to 161
11,COc1cc(COC2CCN(C(=O)c3ccc([N+](=O)[O-])cc3)CC2)cc(OC)c1OC,124
12,O=C(O)C1Oc2cc3onc(-c4ccccc4)c3cc2O1 (stereo not given),202 to 204
13,CCOC(=O)CNC(=O)CCCCCNC(=O)c1cccc(C(F)(F)F)c1,102 to 104
14,CCOC(C#N)c1ccc2ccccc2c1 (stereo not given),53 to 54
15,COC(=O)c1ccc(CC(C)NCC(O)c2ccc(Cl)cc2)cc1 (stereo not given),134 to 135
16,OCCc1nccn1CCCc1ccc(OCc2coc(/C=C/c3c(F)cccc3F)n2)cc1,106 to 107

row,SMILES,melting point [°C]
1,Cn1c(-c2ccccc2)cc2oc(=O)nc(-c3ccccc3)c2c1=O,178 to 179
2,Cc1ccc(S(=O)(=O)OCC2COc3ccc([N+](=O)[O-])c(C=CC=O)c3O2)cc1 (stereo not given),138 to 140
3,CC(=O)OCC(=O)C1(OC(C)=O)C(C)CC2C3CC(Cl)C4=CC(=O)C=CC4(C)C34OC4CC21C (stereo not given),211
4,CCCCOc1ccc(Oc2cc(=O)c3c(OCCCC)c(OC)c(OCCCC)cc3o2)cc1,62 to 63
5,CSc1ncc2ccc(=O)[nH]c2n1,270 to 271
6,O[C@@H]1[C@H](O)[C@H](O)CO[C@H]1n1c(Br)nc2c(F)c(Cl)c(Cl)cc21,165
7,O=[N+]([O-])c1ccc(C=Cc2ccc(OCC(O)CO)cc2)cc1 (stereo not given),147
8,Cc1cc(C)c(N2CCCc3c2nn(C)c3C(=O)N2CCc3ccccc3C2)c(C)c1,80.3 to 87.7
9,CC(=O)Cc1ccc(OCc2ccccc2)cc1,50 to 54
10,O=C(O)c1ccc(-c2cnc3c(c2)N(Cc2ccccc2)C(=O)CN3)cc1,> 200
11,CC(C)(C)NCCOp1oc2c(C(C)(C)C)cc(C(C)(C)C)cc2c2cc(C(C)(C)C)cc(C(C)(C)C)c2o1,135 to 138
12,Cc1cc(C#N)cc(C)c1Nc1nc(Nc2ccc(C#N)cc2)ncc1Br,277 to 280
13,COC(=O)c1cc(Oc2c(Cl)cc(Cl)cc2Cl)ccc1[N+](=O)[O-],101 to 103
14,O=C(O)CCCc1ccc2c(NC(=O)CC3CCCCC3)c(Cl)ccc2n1,216 to 220
15,O=C(O)Cn1cnnn1,125 to 127
16,Cc1cc(-n2nnc(-c3ccccc3)n2)sc1C(=O)NCc1ccccc1,155 to 158

# Second part, the molecule after the results:
row,melting point [°C],SMILES
1,113 to 118,COC(=O)C1(c2cc(C#N)ccc2O)CCCC1
2,91 to 93,O=C(O)Cc1cccc(Sc2ccccc2Cl)c1O
3,189 to 190,COC(=O)c1cccc2c1c(S(=O)(=O)NC(C)(C)C)nn2C
4,204 to 205,C[C@@H]1CN(c2ccc(N/C=C3\C(=O)NC(=O)c4ccc(-c5ccoc5)cc43)cc2)C[C@H](C)N1C
5,88 to 89,COc1ccc(CCNc2nc(NCc3cc(OC)cc(OC)c3)c3cccnc3n2)cc1
6,88 to 90,COC(=O)c1cccc(Sc2ccc(N(C)C)cc2)c1
7,189 to 191,COc1ccc(S(=O)(=O)N2Cc3ccccc3N(C(=O)c3ccc(-n4ccc(C)n4)cc3Cl)CC2C(=O)NO)cc1 (stereo not given)
8,186 to 188,C#CCn1nnc2cc3c(cc2c1=O)OC1CCCN1C3=O (stereo not given)
9,162 to 163,COC(=O)c1cccc(Nc2nccc(-c3ccnc(NCCCO)c3)n2)c1
10,93,O=C(O)CCc1cc2nc(Cl)ccc2n1S(=O)(=O)c1cccc2ccccc12
11,212 to 214,COc1cccc(C(N)=O)c1[N+](=O)[O-]
12,100 to 101,CCN(CC)CCCNC(=O)Cn1ncc(-c2ccc(C#N)cc2)c1-c1ccccc1
13,176 to 178,COc1cc2ncnc(N3CCC(CCN4C=CC=NS4(=O)=O)CC3)c2cc1OC
14,106 to 108,CC(C)Cc1sc2c(c1C(=O)c1ccccc1)CCC2C(=O)O (stereo not given)
15,245 to 246,CN1Cc2c(Cc3ccc4c(c3)C(=O)NC4=O)ncn2-c2ccsc2C1=O
16,83.1 to 111,COCC1CCCN1CCC1CCN(c2nc(=O)c3c(C)c(OC)c(OC)cc3[nH]2)CC1 (stereo not given)
17,170,CNS(=O)(=O)Cc1ccc(NC(=O)C(F)(F)F)c(Br)c1
18,> 250,Nc1nc2ccc(S(=O)(=O)n3c(CCCC(=O)O)cc4nc(Cl)ccc43)cc2s1
19,236 to 237,CN1c2ccccc2Sc2cn(C)c(=O)c(C#N)c21

row,melting point [°C],SMILES
1,90 to 92,ClC(Cl)(Cl)C1Nc2ccccc2CO1 (stereo not given)
2,150 to 151,CCOC(=O)Oc1ccc(OC)c(N)c1
3,272 to 275,CCCc1nn(C)c2c(=O)[nH]c(Cc3ccc(NC(C)=O)cc3)nc12
4,160 to 162,CCN1c2c(occ(C=O)c2=O)-c2ccccc2S1(=O)=O
5,239 to 240,Cc1csc(C(=O)c2[nH]c3cc(Cl)ccc3c2CC(=O)O)n1
6,155,CN1CCC(C2(O)c3ccccc3C=Cn3ccnc32)CC1 (stereo not given)
7,124 to 125,O=C1C(c2ccccc2)=C(c2ccccc2)C(=O)N1Cc1ccc(F)cc1
8,163 to 166,CS(=O)(=O)Nc1cc([C@@H](O)CNC2CCN(c3ccc(S(=O)(=O)N(CC(=O)O)CC(=O)O)cc3)CC2)ccc1O
9,162 to 164,COc1ccc(C2=NNC(=O)CS2)c(OC)c1
10,149,CNc1nc(OCc2ccccc2)ccc1[N+](=O)[O-]
11,174 to 176,ON=C1CCc2c1sc1c2CCCC1
12,192 to 195,COc1ccc(S(=O)(=O)N2C(=O)C(N)(c3ccccc3Cl)c3cc(Cl)ccc32)c([N+](=O)[O-])c1 (stereo not given)
13,156 to 157,CCCNC(=O)C1(CCCCN2CCC(N3Cc4ccccc4C3=O)CC2)C(c2ccccc2)=Cc2ccccc21 (stereo not given)
14,89 to 90,CCCc1coc2c(Cc3ccc(C(C)C)cc3)c(C)cc(C)c12
15,108 to 110,O=C(O)C=CC=CCSc1ccccc1
16,155 to 156,Clc1ccc2nc(Cl)cn2c1
17,215 to 218,Fc1ccc2[nH]c3c(c2c1)CN(CCCc1cccnc1)CC3
18,222 to 223,Nc1ncc(-c2cccc(-n3cnc4cc(-c5ccoc5)ccc43)c2)cn1
19,230,CCn1nc(C(C)(C)C)c2c1C(=S)NCC(c1ccccc1)=N2
